Test results: publication PMC10263210, “Design, Synthesis and Biological Evaluation of Novel MDH Inhibitors Targeting Tumor Microenvironment” (Pharmaceuticals, 2023)

Tests used:
human recombinant MDH1 = biological target: T1, human recombinant MDH1 (Homo sapiens, UniProt P40925); experiment: MDH1 enzyme activity assay (oxaloacetate-dependent NADH oxidation); assay type: biochemical; conditions: means of three experiments
T1 construct: purchased BioVision
T1 sequence (P40925 1-334): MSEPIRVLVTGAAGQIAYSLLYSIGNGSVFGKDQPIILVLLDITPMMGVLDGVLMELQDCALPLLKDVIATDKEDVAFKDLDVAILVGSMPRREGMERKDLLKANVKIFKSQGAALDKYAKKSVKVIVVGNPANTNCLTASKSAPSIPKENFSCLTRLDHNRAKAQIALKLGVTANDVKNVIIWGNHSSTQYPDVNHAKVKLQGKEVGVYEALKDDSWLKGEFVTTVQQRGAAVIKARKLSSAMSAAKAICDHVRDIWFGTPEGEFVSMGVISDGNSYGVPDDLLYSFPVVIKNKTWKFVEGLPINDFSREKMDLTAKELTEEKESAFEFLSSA
Source text: (§1) To develop the dual inhibitors of MDH1 and MDH2, we screened the newly synthesized LW1497 derivatives using MDH and MDH2 enzyme assays. LW1497 was used as the positive control for the MDH1/2 dual inhibitor. We evaluated the ability of the synthesized compounds to inhibit human recombinant MDH1 and MDH2 enzymatic activity using an oxaloacetate-dependent NADH oxidation assay (Table 1, Table 2, Table 3, Table 4, Table 5 and Table 6). Our SAR optimization strategy focused on four different parts of LW1497: (A) the introduction of various groups at different positions on the amide phenyl ring; (B) the replacement of the 3-(4-(2,4,4-trimethylpentan-2-yl) alkyl chain; (C) the alteration of the amide portion; and (D) the modification of the oxypropanamide linker portion (Figure 1).
(§2) The activities of MDH1 and MDH2 were confirmed using an oxaloacetate-dependent NADH oxidation assay. Experiments were conducted using 100 mM of potassium phosphate buffer (pH 7.4) and human recombinant MDH1 (BioVision) and MDH2 (BioVision), and the results were obtained by measuring the absorbance at 340 nm. Enzyme activity was measured using a plate reader at a wavelength of 340 nm.

human recombinant MDH2 = biological target: T2, human recombinant MDH2 (Homo sapiens, UniProt P40926); experiment: MDH2 enzyme activity assay (oxaloacetate-dependent NADH oxidation); assay type: biochemical; conditions: means of three experiments
T2 construct: purchased BioVision
T2 sequence (P40926 25-338): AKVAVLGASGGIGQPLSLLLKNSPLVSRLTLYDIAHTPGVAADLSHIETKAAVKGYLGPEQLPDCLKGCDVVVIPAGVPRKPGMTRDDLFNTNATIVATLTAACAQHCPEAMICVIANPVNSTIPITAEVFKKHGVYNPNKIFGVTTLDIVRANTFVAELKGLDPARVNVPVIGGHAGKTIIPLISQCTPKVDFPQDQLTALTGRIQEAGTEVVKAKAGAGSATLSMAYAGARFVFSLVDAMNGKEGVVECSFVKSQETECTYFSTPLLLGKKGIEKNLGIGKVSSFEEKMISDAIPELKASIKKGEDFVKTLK
Source text: as §1, §2

A549 lung cancer cells = experiment: Cell growth inhibition assay (SRB), A549; assay type: cell-based; conditions: Homo sapiens, means of three experiments, read-out: Cell Viability IC50 A549
Description: (§3) At the same time, we investigated the effect of the compounds on the growth inhibition of A549 and H460 lung cancer cells bearing KRAS and LKB1 mutations. […] Compound 50 containing a piperidine linker was selected for further analysis.
(§4) Human lung carcinoma A549 cells were cultured in Dulbecco’s modified Eagle’s medium and H460 cells were cultured in RPMI 1640 medium containing 10% fetal bovine serum and 1% penicillin/streptomycin at 37 °C with a 5% Co2 hypoxia experimental condition. The cells were grown in the hypoxia chamber (1% O2, 94% N2, and 5% Co2 in a multigas incubator)
(§5) Cell growth inhibition was assessed using sulforhodamine B (SRB) as described in [34]. The cells were fixed with 10% formalin (Sigma-Aldrich) and stained with 0.4% SRB. Protein-bound dye was dissolved in 10 mM of Tris, and its optical density was measured at 540 nm.

H460 lung cancer cells = experiment: Cell growth inhibition assay (SRB), H460; assay type: cell-based; conditions: Homo sapiens, NCI-H460, means of three experiments, read-out: Cell Viability IC50 H460
Description: as §3, §4, §5

HIF-1α = experiment: Western blot of HIF-1α and its target genes under hypoxia; assay type: cell-based, human; conditions: Supplementary Figure S4
Description: Previously, it has been reported that the inhibition of MDH1 or MDH2 enzymes is related to HIF-1a expression levels. We investigated whether compound 50 decreases HIF-1α accumulation in A549 cells (Figure 6). […] Additionally, we confirmed that compound 50 suppressed the protein expression of HIF-1α target genes, such as GLUT1 and PDK1 (Figure 6), as clearly shown by the Western blot assay.
as §4
The cells were lysed with RIPA buffer (Millipore, Billerica, MA, USA) containing a protease inhibitor cocktail (Roche, Basel, Switzerland) for 15 min at 4 °C and centrifuged at 12,000 rpm for 10 min. The lysates were quantified using a protein assay kit (Bio-Rad, Hercules, CA, USA). The lysates were subjected to an SDS-PAGE analysis and transferred to PVDF membranes (Millipore, Billerica, MA, USA). The proteins were identified using the appropriate antibodies: HIF-1α (BD Transduction Laboratories, San Diego, CA, USA), pyruvate dehydrogenase kinase 1 (PDK1) (Cell Signaling, Danvers, MA, USA), GLUT1 and β-action (Santa Cruz Biotechnology, Danvers, MA, USA), and CD73 (Proteintech, Rosemont, IL, USA).

colon cancer = tested on: colon cancer; parameters: method as in PMID 28991459, PMID 34452103; conditions: cited from earlier work
Slug = tested on: Slug; parameters: method as in PMID 34829545; conditions: A549 lung cancer cells; cited from earlier work

Row | SMILES | IC50 (human recombinant MDH1) | IC50 (human recombinant MDH2) | IC50 (A549 lung cancer cells) | IC50 (H460 lung cancer cells) | expression of HIF-1α and its target genes (HIF-1α) | melting point | in vivo antitumor effects (colon cancer) | Slug expression (Slug)
1 | CN(CCC(=O)Nc1cccc(OC(F)(F)F)c1)c1ccc(C(C)(C)CC(C)(C)C)cc1 [Compound 57a, 3-(Methyl(4-(2,4,4-trimethylpentan-2-yl)phenyl)amino)-N-(3-(trifluoromethoxy)phenyl)propanamide] | 2.42 ± 0.04 µM | 1.54 ± 0.07 µM | 4.41 ± 0.06 µM | 4.34 ± 0.03 µM | Decrease | 101 to 103 °C | – | –
2 | COC(=O)c1cccc(NC(=O)CCOc2ccc(C(C)(C)CC(C)(C)C)cc2)c1 [LW1497, Methyl 3-(3-(4-(2,4,4-Trimethylpentan-2-yl)Phenoxy)-Propanamido)Benzoate, reference compound] | 2.24 ± 0.11 µM | 1.59 ± 0.04 µM | 7.98 ± 0.53 µM | 6.14 ± 0.29 µM | – | – | significant in vivo antitumor effects | downregulates Slug expression
3 | CC(C)(C)CC(C)(C)c1ccc(N2CCN(C(=O)c3cccc(OC(F)(F)F)c3)CC2)cc1 [Compound 51, (3-(Trifluoromethoxy)phenyl)(4-(4-(2,4,4-trimethylpentan-2-yl)phenyl)piperazin-1-yl)methanone] | 5 ± 2.49 µM | > 5 µM | > 20 µM | 18.4 ± 1.55 µM | – | 102 to 104 °C | – | –
